From patent publication US20240085429A1, “ALTERING PROTEIN FUNCTION BY PHARMACOLOGICAL TARGETING OF MEMBRANE DOMAINS” (University of Virginia Patent Foundation, priority 2021, published 2024)
Where a name gives a salt, the structure may show the parent alone.

Assays:
Parameters in all cases: species or system human
[1] = tested on: GPMVs from HeLa cells; assay: Assay robustness, SSMD* based on % phase separated GPMVs; settings: for SSMD* based on percentage of phase separated GPMVs: 10 mM (so in the source) vs DMSO, mean±SD, n=3; for SSMD* effect size class: classification per Zhang, 2011
Protocol: GPMVs were prepared as described above and incubated for 2 hours at RT. They were then seeded into a flat bottom, black-walled 96-well plates (Greiner Bio-One, Kremsmunster, Austria) coated with 0.1% bovine serum albumin and pre-loaded in a checkerboard pattern with DMSO, 10 mM TLCK, or 10 mM C6 ceramide (FIG. 12A). GPMVs were imaged using the ImageXpress Micro XL automated imager using a Nikon 40× super plan fluor ELWD objective and analyzed using the software described above to determine the percentage of phase separated vesicles in each well (FIG. 12B). An estimate for robust strictly standardized mean difference (SSMD*) (Zhang, X. D., Genomics 2007, 89 (4), 552-611; Zhang, X. D., et al., J Biomol Screen 2011, 16 (7), 775-85) was then calculated based on the percentage of phase separated vesicles per well as reported in the NBD-DSPE channel according to the following equation: […]
Here, XP and XN represent the medians of the percentage of phase separated vesicles for the positive controls (C6 ceramide or TLCK) and negative control (DMSO), respectively, whereas śP and śN correspond to the absolute deviations from the median for the positive and negative controls. Three independent GPMV preparations were analyzed on separate days to evaluate reproducibility (FIG. 12C).

[2] = tested on: GPMVs derived from HeLa cells; assay: Ten-point dose response of re-ordered hits in GPMVs; settings: for percentage of phase separated vesicles as a function of increasing concentration: freshly made reordered stocks
Protocol: Compounds identified in the initial screens as potential hits were re-ordered and their identity verified by mass spectrometry by the Vanderbilt Chemical Synthesis Core. Ten-point dose response curves using ˜1:2 serial dilutions were generated producing a range of final concentration of 30 nM to […] and backfilled to yield equivalent concentrations of DMSO. Data were collected in duplicate for each concentration. Two independent dose response experiments were performed.

[3] = tested on: GPMVs generated from HeLa cells; assay: Tmisc measurements (temperature scan of % phase separated GPMVs); settings: 1 μM C6 ceramide or 10 μM TLCK, 2 independent experiments
Protocol: GPMVs were generated from HeLa cells and either labelled with NBD-DSPE and DiI as described above (TLCK experiments) or labelled with DiI-C12 (C6-cermide experiments). They were then treated with 1 μM C6 ceramide (Sigma Aldrich) or 10 μM TLCK (Cayman) for 1-2 h, mounted in a chamber formed from two coverslips separated by a silicon spacer in the continued presence of drug or an equivalent volume of DMSO (final concentration=0.1 mol %), and allowed to settle for 1 h prior to being imaged.
Tmisc measurements for GPMVs treated with C6-ceramide were performed using a Zeiss LSM 510 confocal microscope. […] DiI-C12 fluorescence was excited using the 543 nm line of a HeNe laser and images were collected at 1× digital zoom. […] For these datasets, the number of phase separated GPMVs was scored manually. […]
Tmisc measurements for GPMVs treated with TLCK were performed using a Zeiss A880 confocal microscope. […] NBD-DSPE fluorescence was excited using a 458 Argon laser line and detected using a 458/548 dichroic and 482-614 nm band pass filter. DiD fluorescence was excited using a 633 nm HeNe laser and emission was collected using a 633/698.5 dichroic and a 638-759 nm band pass filter. […] For these datasets, the percentages of phase separated GPMVs were scored using the “colocalization” method using the MATLAB algorithm described above. […]

In the case of `CCCCCCCCCCCCC/C=C/[C@@H](O)[C@H](CO)NC(=O)CCCCC` [C6 Ceramide (d18:1/6:0)], the “SSMD* based on percentage of phase separated GPMVs” value [1] was 8.84±2.65, the “SSMD* effect size class” value [1] was “extremely strong” and the “effect on phase preference of NBD-DSPE (Pordered) versus concentration” value [2] was “dose-dependent”. The “percentage of phase separated vesicles as a function of increasing concentration” value [2] was “opposite effect” and the “change in Tmisc relative to DMSO” value [3] was “lowered Tmisc”.
`Cc1ccc(S(=O)(=O)N[C@@H](CCCCN)C(=O)CCl)cc1` [TLCK hydrochloride, Nα-Tosyl-Lys Chloromethyl Ketone] was tested, and the “SSMD* based on percentage of phase separated GPMVs” value [1] was 1.34±0.29, the “SSMD* effect size class” value [1] was “moderate” and the “effect on phase preference of NBD-DSPE (Pordered) versus concentration” value [2] was “dose-dependent”. The “percentage of phase separated vesicles as a function of increasing concentration” value [2] was “systematically increased” and the “change in Tmisc relative to DMSO” value [3] was “increased Tmisc”.
